Read-outs that look alike come from different tables or passages of the source.
Tests used:
[1] = tested on: Botryotinia fuckeliana (Botrytis cinerea); experiment: Botryotinia fuckeliana (Botrytis cinerea) / liquid culture (Gray mould); assay type: cell-based; details: read-out: disease control (inhibition of growth, photometric)
[2] = tested on: Glomerella lagenarium (Colletotrichum lagenarium); experiment: Glomerella lagenarium (Colletotrichum lagenarium) / liquid culture (Anthracnose); assay type: cell-based; details: Colletotrichum orbiculare, read-out: disease control (inhibition of growth, photometric)
[3] = tested on: Monographella nivalis (Microdochium nivale); experiment: Monographella nivalis (Microdochium nivale) / liquid culture (foot rot cereals); assay type: cell-based; details: read-out: disease control (inhibition of growth, photometric)
[4] = tested on: Mycosphaerella arachidis (Cercospora arachidicola); experiment: Mycosphaerella arachidis (Cercospora arachidicola) / liquid culture (early leaf spot); assay type: cell-based; details: read-out: disease control (inhibition of growth, photometric)
[5] = tested on: Mycosphaerella graminicola (Septoria tritici); experiment: Mycosphaerella graminicola (Septoria tritici) / liquid culture (Septoria blotch); assay type: cell-based; details: Zymoseptoria tritici, read-out: disease control (inhibition of growth, photometric)
[6] = tested on: Puccinia recondita f. sp. tritici; experiment: Puccinia recondita f. sp. tritici / wheat / leaf disc preventative (Brown rust); assay type: in vivo; details: foliar, read-out: percent disease control compared to untreated
[7] = tested on: Phakopsora pachyrhizi; experiment: Phakopsora pachyrhizi / soybean / leaf disc preventative (Asian soybean rust); assay type: in vivo; details: foliar, read-out: percent disease control compared to untreated
[8] = tested on: Phaeosphaeria nodorum (Septoria nodorum); experiment: Phaeosphaeria nodorum (Septoria nodorum) / wheat / leaf disc preventative (Glume blotch); assay type: in vivo; details: Parastagonospora nodorum, foliar, read-out: percent disease control compared to untreated
[9] = tested on: Magnaporthe grisea (Pyricularia oryzae); experiment: whole plant or invertebrate; assay type: in vivo; details: foliar, read-out: percent disease control compared to untreated
[10] = 20 ppm in the applied formulation, Vogels broth, 24° C., 3-4 days after application, vs untreated control
[11] = 20 ppm in the applied formulation, PDB, 24° C., 3 to 4 days after application, vs untreated control
[12] = 20 ppm in the applied formulation, PDB, 24° C., 4-5 days after application, vs untreated control
[13] = 20 ppm in the applied formulation, PDB, 24° C., 4 to 5 days after application, vs untreated control
[14] = 200 ppm in the applied formulation, wheat leaf segments cv. Kanzler, inoculated 1 day after application, assessed 7-9 days after application
[15] = 200 ppm in the applied formulation, soybean leaf disks, inoculated one day after application, assessed 12 to 14 days after application
[16] = 200 ppm in the applied formulation, wheat leaf segments cv. Kanzler, inoculated 2 days after application, assessed 5-7 days after application

COc1ccnc(C(=O)N[C@@H](C)C(=O)OC(C)C2(c3ccc(Cl)cc3)CCC2)c1O (stereo partly drawn) [X.01, 1-[1-(4-chlorophenyl)cyclobutyl]ethyl(2S)-2-[(3-hydroxy-4-methoxy-pyridine-2-carbonyl)amino]propanoate]
≥ 80%: inhibition at 20 ppm [1, 10] | inhibition at 20 ppm [2, 11] | inhibition at 20 ppm [3, 12] | inhibition at 20 ppm [4, 12] | inhibition at 20 ppm [5, 13] | pest or weed control at 200 ppm [6, 14]

COc1ccnc(C(=O)N[C@@H](C)C(=O)OC(C)C(C)n2ccc3c(Br)ccc(F)c32)c1O (stereo partly drawn) [X.02, [2-(4-bromo-7-fluoro-indol-1-yl)-1-methyl-propyl] (2S)-2-[(3-hydroxy-4-methoxy-pyridine-2-carbonyl)amino]propanoate]
≥ 80%: inhibition at 20 ppm [1, 10] | inhibition at 20 ppm [2, 11] | inhibition at 20 ppm [3, 12] | inhibition at 20 ppm [4, 12] | inhibition at 20 ppm [5, 13] | pest or weed control at 200 ppm [7, 15] | pest or weed control at 200 ppm [6, 14]

COc1ccnc(C(=O)N[C@@H](C)C(=O)OC(C)C(C)c2ncc(Cl)cc2Cl)c1O (stereo partly drawn) [X.03, [2-(3,5-dichloro-2-pyridyl)-1-methyl-propyl] (2S)-2-[(3-hydroxy-4-methoxy-pyridine-2-carbonyl)amino]propanoate]
≥ 80%: inhibition at 20 ppm [1] | inhibition at 20 ppm [2] | inhibition at 20 ppm [3] | inhibition at 20 ppm [4] | inhibition at 20 ppm [5] | pest or weed control at 200 ppm [7] | pest or weed control at 200 ppm [8] | pest or weed control at 200 ppm [6]

COc1ccnc(C(=O)N[C@@H](C)C(=O)O[C@@H](C)C2(c3cccc4ccccc34)CC2)c1OCOC(C)=O [X.04, [(1S)-1-[1-(1-naphthyl)cyclopropyl]ethyl] (2S)-2-[[3-(acetoxymethoxy)-4-methoxy-pyridine-2-carbonyl]amino]propanoate]
≥ 80%: inhibition at 20 ppm [2, 11] | pest or weed control at 200 ppm [9] | inhibition at 20 ppm [3, 12] | inhibition at 20 ppm [4, 12] | inhibition at 20 ppm [5, 13] | pest or weed control at 200 ppm [7, 15] | pest or weed control at 200 ppm [8, 16] | pest or weed control at 200 ppm [6, 14]

COc1ccnc(C(=O)N[C@@H](C)C(=O)O[C@@H](C)C2(c3cccc4ccccc34)CC2)c1O [X.05, [(1S)-1-[1-(1-naphthyl)cyclopropyl]ethyl] (2S)-2-[(3-hydroxy-4-methoxy-pyridine-2-carbonyl)amino]propanoate]
≥ 80%: inhibition at 20 ppm [1, 10] | inhibition at 20 ppm [2, 11] | pest or weed control at 200 ppm [9] | inhibition at 20 ppm [3, 12] | inhibition at 20 ppm [4, 12] | inhibition at 20 ppm [5, 13] | pest or weed control at 200 ppm [7, 15] | pest or weed control at 200 ppm [8, 16] | pest or weed control at 200 ppm [6, 14]

COc1ccnc(C(=O)N[C@@H](C)C(=O)OC(C)C(C)c2ncc(Cl)cc2Cl)c1OCOC(=O)C(C)C (stereo partly drawn) [X.06, [2-[[(1S)-2-[2-(3,5-dichloro-2-pyridyl)-1-methyl-propoxy]-1-methyl-2-oxo-ethyl]carbamoyl]-4-methoxy-3-pyridyl]oxymethyl 2-methylpropanoate]
≥ 80%: inhibition at 20 ppm [3, 12] | inhibition at 20 ppm [4, 12] | inhibition at 20 ppm [5, 13] | pest or weed control at 200 ppm [7, 15] | pest or weed control at 200 ppm [6, 14]

COc1ccnc(C(=O)N[C@@H](C)C(=O)O[C@@H](C)C2(c3cccc4ccccc34)CC2)c1OCOC(=O)C(C)C [X.07, [4-methoxy-2-[[(1S)-1-methyl-2-[(1S)-1-[1-(1-naphthyl)cyclopropyl]ethoxy]-2-oxo-ethyl]carbamoyl]-3-pyridyl]oxymethyl 2-methylpropanoate]
≥ 80%: inhibition at 20 ppm [2, 11] | pest or weed control at 200 ppm [9] | inhibition at 20 ppm [4, 12] | inhibition at 20 ppm [5, 13] | pest or weed control at 200 ppm [8, 16] | pest or weed control at 200 ppm [6, 14]

COc1ccnc(C(=O)N[C@@H](C)C(=O)OC(C)C(C)(C)c2ccc(Br)cc2)c1O (stereo partly drawn) [X.08, [2-(4-bromophenyl)-1,2-dimethyl-propyl] (2S)-2-[(3-hydroxy-4-methoxy-pyridine-2-carbonyl)amino]propanoate]
≥ 80%: inhibition at 20 ppm [1, 10] | inhibition at 20 ppm [2, 11] | pest or weed control at 200 ppm [9] | inhibition at 20 ppm [3, 12] | inhibition at 20 ppm [4, 12] | inhibition at 20 ppm [5, 13] | pest or weed control at 200 ppm [6, 14]

COc1ccnc(C(=O)N[C@@H](C)C(=O)OC(C)C2(c3ccccc3)CCCCC2)c1O (stereo partly drawn) [X.09, 1-(1-phenylcyclohexyl)ethyl (2S)-2-[(3-hydroxy-4-methoxy-pyridine-2-carbonyl)amino]propanoate]
≥ 80%: inhibition at 20 ppm [1, 10] | inhibition at 20 ppm [2, 11] | pest or weed control at 200 ppm [9] | inhibition at 20 ppm [3, 12] | inhibition at 20 ppm [4, 12] | inhibition at 20 ppm [5, 13] | pest or weed control at 200 ppm [6, 14]

COc1ccnc(C(=O)N[C@@H](C)C(=O)OC(C)C(C)c2ccc3ccccc3n2)c1O (stereo partly drawn) [X.10, [1-methyl-2-(2-quinolyl)propyl] (2S)-2-[(3-hydroxy-4-methoxy-pyridine-2-carbonyl)amino]propanoate]
≥ 80%: inhibition at 20 ppm [1, 10] | inhibition at 20 ppm [2, 11] | inhibition at 20 ppm [3, 12] | inhibition at 20 ppm [5, 13] | pest or weed control at 200 ppm [6, 14]

COc1ccnc(C(=O)N[C@@H](C)C(=O)OC(C)C(C)n2ccc3cccc(Br)c32)c1O (stereo partly drawn) [X.11, [2-(7-bromoindol-1-yl)-1-methyl-propyl] (2S)-2-[(3-hydroxy-4-methoxy-pyridine-2-carbonyl)amino]propanoate]
≥ 80%: inhibition at 20 ppm [2, 11] | inhibition at 20 ppm [3, 12] | inhibition at 20 ppm [4, 12] | inhibition at 20 ppm [5, 13] | pest or weed control at 200 ppm [7, 15] | pest or weed control at 200 ppm [6, 14]

COc1ccnc(C(=O)N[C@@H](C)C(=O)OC(C)C(C)n2ccc3ccc(C(F)(F)F)cc32)c1O (stereo partly drawn) [X.12, [1-methyl-2-[6-(trifluoromethyl)indol-1-yl]propyl] (2S)-2-[(3-hydroxy-4-methoxy-pyridine-2-carbonyl)amino]propanoate]
≥ 80%: inhibition at 20 ppm [1, 10] | inhibition at 20 ppm [2, 11] | pest or weed control at 200 ppm [9] | inhibition at 20 ppm [3, 12] | inhibition at 20 ppm [4, 12] | inhibition at 20 ppm [5, 13] | pest or weed control at 200 ppm [6, 14]

COc1ccnc(C(=O)N[C@@H](C)C(=O)OC(C)C(C)n2ncc3ccccc32)c1O (stereo partly drawn) [X.13, (2-indazol-1-yl-1-methyl-propyl) (2S)-2-[(3-hydroxy-4-methoxy-pyridine-2-carbonyl)amino]propanoate]
≥ 80%: inhibition at 20 ppm [5, 13]

COc1ccnc(C(=O)N[C@@H](C)C(=O)OC(C)C(C)c2ccc(Cl)s2)c1O (stereo partly drawn) [X.14, [2-(5-chloro-2-thienyl)-1-methyl-propyl] (2S)-2-[(3-hydroxy-4-methoxy-pyridine-2-carbonyl)amino]propanoate]
≥ 80%: inhibition at 20 ppm [1, 10] | inhibition at 20 ppm [2, 11] | inhibition at 20 ppm [3, 12] | inhibition at 20 ppm [4, 12] | inhibition at 20 ppm [5, 13] | pest or weed control at 200 ppm [6, 14]

COc1ccnc(C(=O)N[C@@H](C)C(=O)OC(C)C(C)n2ccc3c(Cl)ccc(Cl)c32)c1OC(C)=O (stereo partly drawn) [X.15, [2-(4,7-dichloroindol-1-yl)-1-methyl-propyl] (2S)-2-[(3-acetoxy-4-methoxy-pyridine-2-carbonyl)amino]propanoate]
≥ 80%: inhibition at 20 ppm [2, 11] | inhibition at 20 ppm [3, 12] | inhibition at 20 ppm [4, 12] | inhibition at 20 ppm [5, 13] | pest or weed control at 200 ppm [6, 14]

COc1ccnc(C(=O)N[C@@H](C)C(=O)OC(C)C(C)n2ccc3c(F)ccc(Br)c32)c1OC(C)=O (stereo partly drawn) [X.16, [2-(7-bromo-4-fluoro-indol-1-yl)-1-methyl-propyl] (2S)-2-[(3-acetoxy-4-methoxy-pyridine-2-carbonyl)amino]propanoate]
≥ 80%: inhibition at 20 ppm [2, 11] | inhibition at 20 ppm [3, 12] | inhibition at 20 ppm [4, 12] | inhibition at 20 ppm [5, 13] | pest or weed control at 200 ppm [7, 15] | pest or weed control at 200 ppm [6, 14]

COc1ccnc(C(=O)N[C@@H](C)C(=O)O[C@@H](C)C2(c3cccc4ccccc34)CC2)c1OC(C)=O [X.17, [(1S)-1-[1-(1-naphthyl)cyclopropyl]ethyl] (2S)-2-[(3-acetoxy-4-methoxy-pyridine-2-carbonyl)amino]propanoate]
≥ 80%: inhibition at 20 ppm [1, 10] | inhibition at 20 ppm [2, 11] | pest or weed control at 200 ppm [9] | inhibition at 20 ppm [3, 12] | inhibition at 20 ppm [4, 12] | inhibition at 20 ppm [5, 13] | pest or weed control at 200 ppm [7, 15] | pest or weed control at 200 ppm [8, 16] | pest or weed control at 200 ppm [6, 14]
